Measurements taken from patent US20140087945A1, “SUBSTITUTED 4-CYAN-3-(2,6-DIFLUOROPHENYL)-4-PHENYLBUTANOATES, METHOD FOR THE PRODUCTION THEREOF AND USE THEREOF AS HERBICIDES AND PLANT GROWTH REGULATORS” (Bayer Intellectual Property GmbH, priority 2011, published 2014).

How the values were obtained:
[1] = system: a plurality of harmful plants; experiment: Herbicidal post-emergence action, greenhouse pot test; type: in vivo; conditions: post-emergence method
Experimental: Seeds of monocotyledonous and dicotyledonous weed and crop plants are placed in sandy loam in wood-fiber pots, covered with soil and cultivated in a greenhouse under good growth conditions. 2 to 3 weeks after sowing, the test plants are treated at the one-leaf stage, where the compounds (I) according to the invention, formulated in the form of wettable powders (WP), are applied by spraying as aqueous suspension or emulsion at a water application rate of 600 l/ha (converted) with the addition of 0.2% of wetting agent to the green parts of the plants. After the test plants have been kept in the greenhouse under optimum growth conditions for about 3 weeks, the activity of the preparations is rated visually in comparison to untreated controls in percent (%): For example, 100% activity=the plants have died, 50% herbicidal activity or damage=the plants have been reduced by 50% or the plant mass has been reduced by 50%, 0% activity=like control plants.

[2] = system: a plurality of harmful plants; experiment: Herbicidal pre-emergence action, greenhouse pot test; type: in vivo; conditions: pre-emergence method; application rate of 320 g or less of active substance per hectare
From the text: Seeds of monocotyledonous and dicotyledonous weed plants and crop plants are placed in wood-fiber pots in sandy loam and covered with soil. The compounds (I) according to the invention, formulated in the form of wettable powders (WP), are then applied as aqueous suspension or emulsion at a water application rate of 600 l/ha (converted) with the addition of 0.2% of wetting agent to the surface of the covering soil. After the treatment, the pots are placed in a greenhouse and kept under good growth conditions for the test plants. After about 3 weeks, the effect of the preparations is scored visually in comparison with untreated controls as percentages. For example, 100% activity=the plants have died, 50% herbicidal activity or damage=the plants have been reduced by 50% or the plant mass has been reduced by 50%, 0% activity=like control plants.

Structure (SMILES)	herbicidal activity against a plurality of harmful plants [1]	herbicidal activity against a plurality of harmful plants [2]
COC(=O)CC(c1c(F)cccc1F)C(C#N)c1ccc(F)cc1 (mixture of isomers) [Example 1-3]	good herbicidal activity	good herbicidal activity
COC(=O)CC(c1c(F)cccc1F)C(C#N)c1ccc(Cl)cc1 (mixture of isomers) [Example 1-6]	good herbicidal activity	good herbicidal activity
COC(=O)CC(c1c(F)cccc1F)C(C#N)c1cc(F)cc(F)c1 (mixture of isomers) [Example 1-12]	good herbicidal activity	good herbicidal activity
COC(=O)CC(c1c(F)cccc1F)C(C#N)c1ccc(F)c(Cl)c1 (mixture of isomers) [Example 1-15]	good herbicidal activity	good herbicidal activity
COC(=O)CC(c1c(F)cccc1F)C(C#N)c1ccc(Cl)c(Cl)c1 (mixture of isomers) [Example 1-16]	good herbicidal activity	good herbicidal activity
COC(=O)CC(c1c(F)cccc1F)C(C#N)c1cccc(I)c1 (mixture of isomers) [Example 1-19]	good herbicidal activity	good herbicidal activity
COC(=O)CC(c1c(F)cccc1F)C(C#N)c1ccccc1OC (mixture of isomers) [Example 1-24]	good herbicidal activity	good herbicidal activity
COC(=O)CC(c1c(F)cccc1F)C(C#N)c1ccc(OC)cc1 (mixture of isomers) [Example 1-26]	good herbicidal activity	good herbicidal activity
COC(=O)CC(c1c(F)cccc1F)C(C#N)c1ccc(OC)c(OC)c1 (mixture of isomers) [Example 1-27]	good herbicidal activity	good herbicidal activity
COC(=O)CC(c1c(F)cccc1F)C(C#N)c1ccc(OC)c(F)c1 (mixture of isomers) [Example 1-28]	good herbicidal activity	good herbicidal activity
COC(=O)CC(c1c(F)cccc1F)C(C#N)c1ccc(C(F)(F)F)c(F)c1 (mixture of isomers) [Example 1-29]	good herbicidal activity	good herbicidal activity
COC(=O)CC(c1c(F)cccc1F)C(C#N)c1cc(F)cc(C(F)(F)F)c1 (mixture of isomers) [Example 1-30]	good herbicidal activity	good herbicidal activity
N#CC(c1cc(F)cc(C(F)(F)F)c1)C(CC(=O)O)c1c(F)cccc1F (mixture of isomers) [Example 1-228]	good herbicidal activity	good herbicidal activity
COC(=O)CC(c1c(F)cccc1F)C(C#N)c1ccc(F)c(Br)c1 (mixture of isomers) [Example 1-232]	good herbicidal activity	good herbicidal activity
COC(=O)CC(c1c(F)cccc1F)C(C#N)c1ccc(F)c(C#N)c1 (mixture of isomers) [Example 1-233]	good herbicidal activity	good herbicidal activity
COC(=O)CC(c1c(F)cccc1F)C(C#N)c1ccc2ccccc2c1 (mixture of isomers) [Example 1-235]	–	good herbicidal activity
COC(=O)CC(c1c(F)cccc1F)C(C#N)c1ccc(F)c(F)c1 (stereo not drawn) [Example 1-11, methyl 4-cyano-3-(2,6-difluorophenyl)-4-(3,4-difluorophenyl)butanoate]	–	good herbicidal activity
N#CC(c1ccc(F)c(F)c1)C(CC(=O)O)c1c(F)cccc1F (stereo not drawn) [Example 1-106, 4-Cyano-3-(2,6-difluorophenyl)-4-(3,4-difluorophenyl)butanoic acid]	good herbicidal activity	good herbicidal activity
COC(=O)CC(c1c(F)cccc1F)C(C#N)c1ccc(F)c(F)c1 (stereo not drawn) [Example 1-230, methyl erythro-4-cyano-3-(2,6-difluorophenyl)-4-(3,4-difluorophenyl)butanoate]	good herbicidal activity	good herbicidal activity
COC(=O)CC(c1c(F)cccc1F)C(C#N)c1ccc(F)c(F)c1 (stereo not drawn) [Example 1-231, methyl threo-4-cyano-3-(2,6-difluorophenyl)-4-(3,4-difluorophenyl)-butanoate]	–	good herbicidal activity
COC(=O)C[C@@H](c1c(F)cccc1F)[C@@H](C#N)c1ccc(F)c(F)c1 [Example 2-11, Methyl (3R,4R)-4-cyano-3-(2,6-difluorophenyl)-4-(3,4-difluorophenyl)-butanoate]	good herbicidal activity	good herbicidal activity
COC(=O)C[C@@H](c1c(F)cccc1F)[C@@H](C#N)c1ccc(F)c(Cl)c1 [Example 2-15]	–	good herbicidal activity
CCOC(=O)C[C@@H](c1c(F)cccc1F)[C@@H](C#N)c1ccc(F)c(F)c1 [Example 2-107, Ethyl (3R,4R)-4-cyano-3-(2,6-difluorophenyl)-4-(3,4-difluorophenyl)-butanoate]	good herbicidal activity	good herbicidal activity
COC(=O)C[C@@H](c1c(F)cccc1F)[C@@H](C#N)c1ccc(F)c(Br)c1 [Example 2-229]	good herbicidal activity	good herbicidal activity
COC(=O)C[C@@H](c1c(F)cccc1F)[C@@H](C#N)c1ccc(F)c(C#N)c1 [Example 2-230]	good herbicidal activity	–
